Reference: the supplement of paper PMC10307832

The cell lines below were run with CCOC(=O)CCNc1cc(N2CCc3ccccc3CC2)nc(-c2ccccn2)n1 [GSK-J4] + O=C(c1cc(Cc2n[nH]c(=O)c3ccccc23)ccc1F)N1CCN(C(=O)C2CC2)CC1 [Olaparib] (partner 8 µM) (assay: relative viability (nuclei count vs DMSO), 5 days (fraction); higher = more cells survive). Details: first compound 5 µM.
In short: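 Lung cancer cell lines were seeded in 1536-well plates and dosed by pin tool the next day, with either a single drug or a fixed anchor-drug dose combined with five library-drug doses (not always all listed) spaced in √10 steps. Five days later, one step fixed the cells and stained their nuclei (final 0.05% Triton X-100, 1% formaldehyde, 1 ug/ml Hoechst), and nuclei were counted on 4× images. Relative viability is the nuclei count in treated wells divided by the count in vehicle wells, and each value is the median of duplicate plates.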

Row | Cell Line | relative viability
1 | NCI-H2023 | 0.472
2 | HCC-78 | 1.1
3 | SK-LU-1 | 0.429
4 | PC-3 [JPC-3] | 0.996
5 | LOU-NH91 | 0.691
6 | NCI-H647 | 0.545
7 | NCI-H23 | 0.292
8 | EPLC-272H | 0.676
9 | NCI-H2126 | 0.966
10 | ChaGo-K-1 | 0.441
11 | HCC-44 | 0.999
12 | NCI-H1734 | 0.551
13 | LK-2 | 0.98
14 | NCI-H2228 | 0.583
15 | NCI-H2342 | 0.501
16 | Calu-6 | 0.587

Row | Cell Line | relative viability
17 | EBC-1 | 0.676
18 | A549 | 0.29
19 | SW 900 | 1.15
20 | NCI-H1299 | 0.878
21 | CAL-12T | 0.772
22 | NCI-H1648 | 1.44
23 | NCI-H520 | 0.354
24 | IA-LM | 0.874
25 | NCI-H661 | 0.7
26 | COR-L 105 | 0.641
27 | NCI-H1703 | 0.372
28 | NCI-H1650 | 0.871
29 | NCI-H2009 | 0.556
30 | SK-MES-1 | 0.727
31 | SW 1573 | 0.486

Same assay, conditions: first compound 15.81 µM

Row | Cell Line | relative viability
32 | NCI-H522 | 0.531
33 | PC-14 | 0.228
34 | NCI-H1666 | 0.746
35 | EKVX | 0.681
36 | NCI-H1755 | 0.859
37 | NCI-H2023 | 0.379
38 | HCC-78 | 0.656
39 | SK-LU-1 | 0.428
40 | PC-3 [JPC-3] | 1.07
41 | LOU-NH91 | 0.872
42 | NCI-H647 | 0.5
43 | NCI-H23 | 0.344
44 | EPLC-272H | 0.652
45 | NCI-H2126 | 0.855
46 | ChaGo-K-1 | 0.354
47 | HCC-44 | 1.08
48 | NCI-H1734 | 0.582
49 | NCI-H650 | 0.272
50 | LK-2 | 0.592

Row | Cell Line | relative viability
51 | NCI-H2228 | 0.728
52 | NCI-H2342 | 0.431
53 | NCI-H1944 | 0.376
54 | Calu-6 | 0.53
55 | COR-L23 | 0.306
56 | EBC-1 | 0.655
57 | A549 | 0.31
58 | SW 900 | 0.797
59 | NCI-H1299 | 0.929
60 | CAL-12T | 0.673
61 | NCI-H520 | 0.332
62 | IA-LM | 0.706
63 | NCI-H661 | 0.559
64 | COR-L 105 | 0.672
65 | NCI-H1703 | 0.362
66 | NCI-H1650 | 0.639
67 | NCI-H2009 | 0.593
68 | SK-MES-1 | 0.626
69 | SW 1573 | 0.354

Same assay, conditions: first compound 50 µM

Row | Cell Line | relative viability
70 | NCI-H522 | 0.409
71 | PC-14 | 0.227
72 | NCI-H1666 | 0.699
73 | EKVX | 0.703
74 | NCI-H1755 | 0.687
75 | NCI-H2023 | 0.348
76 | HCC-78 | 0.742
77 | SK-LU-1 | 0.309
78 | PC-3 [JPC-3] | 0.801
